In assay [1] the target is RBP4 (Homo sapiens (Human), UniProt P02753). The assay is described as follows: Scintillation proximity (SPA) RBP4 binding assay. The note with it: 10 nM 3H-Retinol, 50 nM biotinylated RBP4. How it is done: Scintillation Proximity RBP4 Binding Assay
Untagged human RBP4 purified from urine of tubular proteinuria patients was purchased from Fitzgerald Industries International. It was biotinylated using the EZ-Link Sulfo-NHS-LC-Biotinylation kit from Pierce following the manufacturer's recommendations. Binding experiments were performed in 96-well plates (OptiPlate, PerkinElmer) in a final assay volume of 100 μl per well in SPA buffer (IX PBS, pH 7.4, 1 mM EDTA, 0.1% BSA, 0.5% CHAPS). The reaction mix contained 10 nM ^3H-Retinol (48.7 Ci/mmol; PerkinElmer), 0.3 mg/well Streptavidin-PVT beads, 50 nM biotinylated RBP4 and a test compound. Nonspecific binding was determined in the presence of 20 μM of unlabeled retinol. The reaction mix was assembled in the dark under dim red light. The plates were sealed with clear tape (TopSeal-A: 96-well microplate, PerkinElmer), wrapped in the aluminum foil, and allowed to equilibrate 6 hours at room temperature followed by overnight incubation at +4° C. Radiocounts were measured using a TopCount NXT counter (Packard Instrument Company).

Assay [2] has as its target RBP4-TTR interaction (Homo sapiens (Human), UniProt P02753). Put plainly: TR-FRET (HTRF) assay for retinol-induced RBP4-TTR interaction. In kind it is biochemical. The following applies: in the presence of 1 μM retinol; read-out: HTRF assay for antagonists of RBP4-TTR interaction: IC50. The source says:
TR-FRET assay for retinol-induced RBP4-TTR interaction Binding of a desired RBP4 antagonist displaces retinol and induces hindrance for RBP4-TTR interaction resulting in the decreased FRET signal (FIG. 7). Bacterially expressed MBP-RBP4 and untagged TTR were used in this assay. […] Following cell lysis, recombinant RBP4 was purified from the soluble fraction using the ACTA FPLC system (GE Healthcare) equipped with the 5-ml the MBP Trap HP column. Human untagged TTR was purchased from Calbiochem. Untagged TTR was labeled directly with Eu^3+ Cryptate-NHS using the HTRF Cryptate Labeling kit from CisBio following the manufacturer's recommendations. HTRF assay was performed in white low volume 384 well plates (Greiner-Bio) in a final assay volume of 16 μl per well. The reaction buffer contained 10 mM Tris-HCl pH 7.5, 1 mM DTT, 0.05% NP-40, 0.05% Prionex, 6% glycerol, and 400 mM KF. […] Titration of test compounds in this assay was conducted in the presence of 1 μM retinol. All reactions were assembled in the dark under dim red light and incubated overnight at +4° C. wrapped in aluminum foil. TR-FRET signal was measured in the SpectraMax M5e Multimode Plate Reader (Molecular Device). […] The TR-FRET signal was expressed as the ratio of fluorescence intensity: Flu665/Flu620×10,000.

Broadly, the IC50 is the concentration at which inhibition is half-maximal. Consider `CC(=O)N1CCc2c(C(=O)N3CCC(c4cccc(F)c4C(F)(F)F)CC3)n[nH]c2C1` [Compound 63, 1-(3-(4-(3-Fluoro-2-(trifluoromethyl)phenyl)piperidine-1-carbonyl)-4,5-dihydro-1H-pyrazolo[3,4-c]pyridin-6(7H)-yl)ethanone], for which the IC50 in assay [1] worked out at 4.46 nM; in assay [2], 16 nM.
As for `CS(=O)(=O)N1CCc2[nH]nc(C(=O)N3CCC(c4cccc(F)c4C(F)(F)F)CC3)c2C1` [Compound 64, (4-(3-Fluoro-2-(trifluoromethyl)phenyl)piperidin-1-yl)(5-(methylsulfonyl)-4,5,6,7-tetrahydro-1H-pyrazolo[4,3-c]pyridin-3-yl)methanone], the IC50 in assay [1] came out at 5.36 nM; in assay [2] it was 20.6 nM.
`N#CN1CCc2[nH]nc(C(=O)N3CCC(c4cccc(F)c4C(F)(F)F)CC3)c2C1` [Compound 70, 3-(4-(3-Fluoro-2-(trifluoromethyl)phenyl)piperidine-1-carbonyl)-6,7-dihydro-1H-pyrazolo[4,3-c]pyridine-5(4H)-carbonitrile]: the IC50 in assay [2] turned out to be 37.5 nM.
Consider `O=C(c1n[nH]c2c1CN(CC(F)(F)F)CC2)N1CCC(c2cccc(F)c2C(F)(F)F)CC1` [Compound 71, (4-(3-Fluoro-2-(trifluoromethyl)phenyl)piperidin-1-yl)(5-(2,2,2-trifluoroethyl)-4,5,6,7-tetrahydro-1H-pyrazolo[4,3-c]pyridin-3-yl)methanone], for which the IC50 in assay [1] is 17.1 nM; in assay [2], 52.6 nM.
Regarding `O=C(c1n[nH]c2c1CN(C1COC1)CC2)N1CCC(c2cccc(F)c2C(F)(F)F)CC1` [Compound 74], the IC50 in assay [1] turned out to be 11.6 nM; in assay [2], 28.3 nM.
For `CCN1CCc2c(C(=O)N3CCC(c4cccc(F)c4C(F)(F)F)CC3)n[nH]c2C1` [Compound 75, (6-Ethyl-4,5,6,7-tetrahydro-1H-pyrazolo[3,4-c]pyridin-3-yl)(4-(3-fluoro-2-(trifluormethyl)phenyl)piperidin-1-yl)methanone], the IC50 is 6.95 nM in assay [1] and 34 nM in assay [2].
For `O=C(c1n[nH]c2c1CCN(CCC(F)(F)F)C2)N1CCC(c2cccc(F)c2C(F)(F)F)CC1` [Compound 76, (4-(3-Fluoro-2-(trifluoromethyl)phenyl)piperidin-1-yl)(6-(3,3,3-trifluoropropyl)-4,5,6,7-tetrahydro-1H-pyrazolo[3,4-c]pyridin-3-yl)methanone], the values for the IC50 in assay [1] and in assay [2] were 7.4 nM and 19.7 nM, respectively.
Compound `N#CN1CCc2c(C(=O)N3CCC(c4cccc(F)c4C(F)(F)F)CC3)n[nH]c2C1` [Compound 78, 3-(4-(3-Fluoro-2-(trifluoromethyl)phenyl)piperidine-1-carbonyl)-4,5-dihydro-1H-pyrazolo[3,4-c]pyridine-6(7H)-carbonitrile] displayed an IC50 in assay [1] of 9.5 nM.
Take `CCC(=O)N1Cc2[nH]nc(C(=O)N3CCC(c4ccc(F)c(F)c4C(F)(F)F)CC3)c2C1` [Compound 84, 1-(3-(4-(3,4-difluoro-2-(trifluoromethyl)phenyl)piperidine-1-carbonyl)pyrrolo[3,4-c]pyrazol-5(1H,4H,6H)-yl)propan-1-one]: the IC50 amounted to 16.3 nM in assay [1] and 14.7 nM in assay [2].
`CC(C)C(=O)N1Cc2[nH]nc(C(=O)N3CCC(c4ccc(F)c(F)c4C(F)(F)F)CC3)c2C1` [Compound 85, 1-(3-(4-(3,4-difluoro-2-(trifluoromethyl)phenyl)piperidine-1-carbonyl)pyrrolo[3,4-c]pyrazol 5(1H,4H,6H)-yl)-2-methylpropan-1-one]: the figures for the IC50 in assay [1] and in assay [2] were 17.9 nM and 22.4 nM, respectively.
In the case of `CC(C)CC(=O)N1Cc2[nH]nc(C(=O)N3CCC(c4ccc(F)c(F)c4C(F)(F)F)CC3)c2C1` [Compound 86, 1-(3-(4-(3,4-difluoro-2-(trifluoromethyl)phenyl)piperidine-1-carbonyl)pyrrolo[3,4-c]pyrazol-5(1H, 4H, 6H)-yl)-3-methylbutan-1-one], the figures for the IC50 in assay [1] and in assay [2] were 19.3 nM and 27.8 nM, respectively.
In the same order, the values of `O=C(c1n[nH]c2c1CN(C1COC1)CC2)N1CCC(c2ccc(F)c(F)c2C(F)(F)F)CC1` [Compound 89, (4-(3,4-difluoro-2-(trifluoromethyl)phenyl)piperidin-1-yl)(5-(oxetan-3-yl)-4,5,6,7-tetrahydro-1H-pyrazolo[4,3-c]pyridin-3-yl)methanone] are 8.84 nM and 33 nM.
As for `CC(C)(C)CN1CCc2[nH]nc(C(=O)N3CCC(c4ccc(F)c(F)c4C(F)(F)F)CC3)c2C1` [Compound 90, (4-(3,4-difluoro-2-(trifluoromethyl)phenyl)piperidin-1-yl)(5-neopentyl-4,5,6,7-tetrahydro-1H-pyrazolo[4,3-c]pyridin-3-yl)methanone methanone], the IC50 in assay [1] is 14.4 nM; in assay [2], 42.9 nM.
`COC(=O)N1CCc2[nH]nc(C(=O)N3CCC(c4ccc(F)c(F)c4C(F)(F)F)CC3)c2C1` [Compound 91, methyl 3-(4-(3,4-difluoro-2-(trifluoromethyl)phenyl)piperidine-1-carbonyl)-6,7-dihydro-1H-pyrazolo[4,3-c]pyridine-5(4H)-carboxylate]: the IC50 worked out at 7.06 nM in assay [1] and 57.7 nM in assay [2].
Regarding `CNC(=O)N1CCc2[nH]nc(C(=O)N3CCC(c4ccc(F)c(F)c4C(F)(F)F)CC3)c2C1` [Compound 92, 3-(4-(3,4-difluoro-2-(trifluoromethyl)phenyl)piperidine-1-carbonyl)-N-methyl-6,7-dihydro-1H-pyrazolo[4,3-c]pyridine-5(4H)-carboxamide], the IC50 came to 10.2 nM in assay [1] and 76.6 nM in assay [2].
The matching figures for `O=C(c1n[nH]c2c1CN(CCC(F)(F)F)CC2)N1CCC(c2ccc(F)c(F)c2C(F)(F)F)CC1` [Compound 93, (4-(3,4-difluoro-2-(trifluoromethyl)phenyl)piperidin-1-yl)(5-(3,3,3-trifluoropropyl)-4,5,6,7-tetrahydro-1H-pyrazolo[4,3-c]pyridin-3-yl)methanone]: 8 nM and 33.6 nM.
`COCCN1CCc2[nH]nc(C(=O)N3CCC(c4ccc(F)c(F)c4C(F)(F)F)CC3)c2C1` [Compound 94, (4-(3,4-difluoro-2-(trifluoromethyl)phenyl)piperidin-1-yl)(5-(2-methoxyethyl)-4,5,6,7-tetrahydro-1H-pyrazolo[4,3-c]pyridin-3-yl)methanone]: the IC50 in assay [1] is 6.96 nM; in assay [2] it was 49.9 nM.
Consider `N#CN1CCc2[nH]nc(C(=O)N3CCC(c4ccc(F)c(F)c4C(F)(F)F)CC3)c2C1` [Compound 95, 3-(4-(3,4-difluoro-2-(trifluoromethyl)phenyl)piperidine-1-carbonyl)-6,7-dihydro-1H-pyrazolo[4,3-c]pyridine-5(4H)-carbonitrile], for which the IC50 was determined as 7.78 nM in assay [1] and 27.8 nM in assay [2].
`CCN1Cc2[nH]nc(C(=O)N3CCC(c4ccc(F)c(F)c4C(F)(F)F)CC3)c2C1` [Compound 96, (4-(3,4-difluoro-2(trifluoromethyl)phenyl)piperidin-1-yl)(5-ethyl-1,4,5,6-tetrahydropyrrolo[3,4-c]pyrazol-3-yl)methanone]: the IC50 in assay [1] was 12.7 nM; in assay [2], 26.5 nM.
As to `O=C(c1n[nH]c2c1CN(C1COC1)C2)N1CCC(c2ccc(F)c(F)c2C(F)(F)F)CC1` [Compound 98, (4-(3,4-difluoro-2-(trifluoromethyl)phenyl)piperidin-1-yl)(5-(oxetan-3-yl)-1,4,5,6-tetrahydropyrrolo[3,4-c]pyrazol-3-yl) methanone], the IC50 came out at 11.8 nM in assay [1] and 74.1 nM in assay [2].
`N#CN1CCc2c(C(=O)N3CCC(c4ccc(F)c(F)c4C(F)(F)F)CC3)n[nH]c2C1` [Compound 120, 3-(4-(3,4-Difluoro-2-(trifluoromethyl)phenyl)piperidine-1-carbonyl)-1,4,5,7-tetrahydro-6H-pyrazolo[3,4-c]pyridine-6-carbonitrile] displayed an IC50 in assay [1] of 3.45 nM.
With `O=C(c1n[nH]c2c1CN(C(=O)N1CCCCC1)C2)N1CCC(c2ccc(F)c(F)c2C(F)(F)F)CC1` [Compound 128, (4-(3,4-Difluoro-2-(trifluoromethyl)phenyl)piperidin-1-yl)(5-(piperidine-1-carbonyl)-1,4,5,6 tetrahydropyrrolo[3,4-c]pyrazol-3-yl)methanone], the IC50 in assay [2] was 32.4 nM.

Values taken from US9434727B2, “Substituted 4-phenylpiperidines, their preparation and use” (THE TRUSTEES OF COLUMBIA UNIVERSITY IN THE CITY OF NEW YORK, priority 2014, dated 2016).
